Assay: xn = mol fraction of the nth substance listed
Conditions: 100 kPa, Liquid; for viscosity: Concentric cylinders viscometry; for mass density: Vibrating tube method

Nc1ccccc1 [aniline] + CC(C)O
Conditions	mass density [kg/m3]	viscosity [mPa·s]
293.15 K, x1 = 0.0813	809.7	2.291
293.15 K, x1 = 0.1599	832	2.176
293.15 K, x1 = 0.2396	853.7	2.12
293.15 K, x1 = 0.349	882	2.1
293.15 K, x1 = 0.4402	904.3	2.17
293.15 K, x1 = 0.5598	932.1	2.33
293.15 K, x1 = 0.6501	952	2.54
293.15 K, x1 = 0.74	971	2.81
293.15 K, x1 = 0.8499	993.2	3.31
293.15 K, x1 = 0.9402	1010.6	3.93
293.15 K, x1 = 1	1021.7	4.37
298.15 K, x1 = 0.0813	805.3	1.963
298.15 K, x1 = 0.1599	827.5	1.86
298.15 K, x1 = 0.2396	849.2	1.8
298.15 K, x1 = 0.349	877.4	1.78
298.15 K, x1 = 0.4402	899.7	1.84
298.15 K, x1 = 0.5598	927.6	1.98
298.15 K, x1 = 0.6501	947.5	2.16
298.15 K, x1 = 0.74	966.5	2.39
298.15 K, x1 = 0.8499	988.8	2.84
298.15 K, x1 = 0.9402	1006.2	3.39
298.15 K, x1 = 1	1017.4	3.8
303.15 K, x1 = 0.0813	800.8	1.651
303.15 K, x1 = 0.1599	823	1.56
303.15 K, x1 = 0.2396	844.6	1.5
303.15 K, x1 = 0.349	872.8	1.47
303.15 K, x1 = 0.4402	895.1	1.48
303.15 K, x1 = 0.5598	923	1.58
303.15 K, x1 = 0.6501	942.9	1.7
303.15 K, x1 = 0.74	961.9	1.9
303.15 K, x1 = 0.8499	984.2	2.27
303.15 K, x1 = 0.9402	1001.8	2.73
303.15 K, x1 = 1	1013.2	3.13
308.15 K, x1 = 0.0813	796.4	1.454
308.15 K, x1 = 0.1599	818.5	1.39
308.15 K, x1 = 0.2396	840	1.34
308.15 K, x1 = 0.349	868.2	1.3
308.15 K, x1 = 0.4402	890.6	1.3
308.15 K, x1 = 0.5598	918.5	1.36
308.15 K, x1 = 0.6501	938.5	1.48
308.15 K, x1 = 0.74	957.6	1.67
308.15 K, x1 = 0.8499	980	1.99
308.15 K, x1 = 0.9402	997.7	2.39
308.15 K, x1 = 1	1009	2.75
313.15 K, x1 = 0.0813	791.9	1.29
313.15 K, x1 = 0.1599	814	1.23
313.15 K, x1 = 0.2396	835.5	1.18
313.15 K, x1 = 0.349	863.6	1.15
313.15 K, x1 = 0.4402	885.9	1.14
313.15 K, x1 = 0.5598	913.8	1.2
313.15 K, x1 = 0.6501	933.9	1.3
313.15 K, x1 = 0.74	953.1	1.48
313.15 K, x1 = 0.8499	975.6	1.79
313.15 K, x1 = 0.9402	993.3	2.13
313.15 K, x1 = 1	1004.7	2.43
318.15 K, x1 = 0.0813	787.2	1.125
318.15 K, x1 = 0.1599	809.2	1.076
318.15 K, x1 = 0.2396	830.7	1.043
318.15 K, x1 = 0.349	858.9	1.02
318.15 K, x1 = 0.4402	881.2	1.03
318.15 K, x1 = 0.5598	909.2	1.08
318.15 K, x1 = 0.6501	929.2	1.166
318.15 K, x1 = 0.74	948.5	1.34
318.15 K, x1 = 0.8499	971.1	1.6
318.15 K, x1 = 0.9402	988.9	1.9
318.15 K, x1 = 1	1000.4	2.14
323.15 K, x1 = 0.0813	782.4	0.97
323.15 K, x1 = 0.1599	804.3	0.91
323.15 K, x1 = 0.2396	825.7	0.88
323.15 K, x1 = 0.349	853.8	0.85
323.15 K, x1 = 0.4402	876.2	0.86
323.15 K, x1 = 0.5598	904.1	0.91
323.15 K, x1 = 0.6501	924.2	1.01
323.15 K, x1 = 0.74	943.4	1.18
323.15 K, x1 = 0.8499	966.1	1.45
323.15 K, x1 = 0.9402	984	1.74
323.15 K, x1 = 1	995.5	1.96

Nc1ccccc1 [aniline] + CCC(C)O
Conditions	mass density [kg/m3]	viscosity [mPa·s]
293.15 K, x1 = 0.0813	825	3.32
293.15 K, x1 = 0.16	842.5	3.07
293.15 K, x1 = 0.24	860.1	2.88
293.15 K, x1 = 0.3502	884.2	2.71
293.15 K, x1 = 0.44	903.7	2.66
293.15 K, x1 = 0.5601	929.6	2.72
293.15 K, x1 = 0.65	948.8	2.81
293.15 K, x1 = 0.74	967.8	3
293.15 K, x1 = 0.8499	990.8	3.4
293.15 K, x1 = 0.94	1009.4	3.89
293.15 K, x1 = 1	1021.7	4.37
298.15 K, x1 = 0.0813	820.7	2.77
298.15 K, x1 = 0.16	838.1	2.55
298.15 K, x1 = 0.24	855.7	2.39
298.15 K, x1 = 0.3502	879.7	2.25
298.15 K, x1 = 0.44	899.2	2.21
298.15 K, x1 = 0.5601	924.9	2.24
298.15 K, x1 = 0.65	944.1	2.33
298.15 K, x1 = 0.74	963.1	2.52
298.15 K, x1 = 0.8499	986.2	2.92
298.15 K, x1 = 0.94	1004.9	3.38
298.15 K, x1 = 1	1017.4	3.8
303.15 K, x1 = 0.0813	816.3	2.3
303.15 K, x1 = 0.16	833.6	2.12
303.15 K, x1 = 0.24	851.1	1.97
303.15 K, x1 = 0.3502	875.1	1.83
303.15 K, x1 = 0.44	894.5	1.78
303.15 K, x1 = 0.5601	920.4	1.77
303.15 K, x1 = 0.65	939.6	1.83
303.15 K, x1 = 0.74	958.6	1.97
303.15 K, x1 = 0.8499	981.8	2.32
303.15 K, x1 = 0.94	1000.6	2.77
303.15 K, x1 = 1	1013.2	3.13
308.15 K, x1 = 0.0813	811.9	1.94
308.15 K, x1 = 0.16	829.1	1.81
308.15 K, x1 = 0.24	846.6	1.69
308.15 K, x1 = 0.3502	870.5	1.56
308.15 K, x1 = 0.44	890	1.51
308.15 K, x1 = 0.5601	915.8	1.5
308.15 K, x1 = 0.65	935	1.55
308.15 K, x1 = 0.74	954.2	1.69
308.15 K, x1 = 0.8499	977.4	2.01
308.15 K, x1 = 0.94	996.4	2.43
308.15 K, x1 = 1	1009	2.75
313.15 K, x1 = 0.0813	807.5	1.65
313.15 K, x1 = 0.16	824.7	1.52
313.15 K, x1 = 0.24	842.1	1.416
313.15 K, x1 = 0.3502	865.9	1.33
313.15 K, x1 = 0.44	885.3	1.29
313.15 K, x1 = 0.5601	911.2	1.3
313.15 K, x1 = 0.65	930.5	1.35
313.15 K, x1 = 0.74	949.6	1.49
313.15 K, x1 = 0.8499	973	1.78
313.15 K, x1 = 0.94	992	2.14
313.15 K, x1 = 1	1004.7	2.43
318.15 K, x1 = 0.0813	802.9	1.42
318.15 K, x1 = 0.16	820	1.31
318.15 K, x1 = 0.24	837.3	1.21
318.15 K, x1 = 0.3502	861.1	1.13
318.15 K, x1 = 0.44	880.5	1.11
318.15 K, x1 = 0.5601	906.4	1.13
318.15 K, x1 = 0.65	925.7	1.19
318.15 K, x1 = 0.74	945	1.31
318.15 K, x1 = 0.8499	968.5	1.58
318.15 K, x1 = 0.94	987.6	1.9
318.15 K, x1 = 1	1000.4	2.14
323.15 K, x1 = 0.0813	798.2	1.24
323.15 K, x1 = 0.16	815.2	1.15
323.15 K, x1 = 0.24	832.5	1.07
323.15 K, x1 = 0.3502	856.2	1
323.15 K, x1 = 0.44	875.5	0.99
323.15 K, x1 = 0.5601	901.3	1.014
323.15 K, x1 = 0.65	920.7	1.075
323.15 K, x1 = 0.74	940	1.189
323.15 K, x1 = 0.8499	963.5	1.46
323.15 K, x1 = 0.94	982.7	1.75
323.15 K, x1 = 1	995.5	1.96
